The results in this text go back to patent US20080188524A1, “Methods of treating pain” (priority 2006, published 2008).

Structures are written as SMILES. Values joined by “and” are separate entries in the source; they are usually repeats but may differ in a detail not shown here. Equal entries are not always repeated. “Also recorded” adds a separate entry of the source.

The subject of assay [1] is LPS or SEB induced TNF α in human whole blood. In words: tissue or blood. In kind it is cell-based.
Assay [2] has as its system SNI mice (mechanical allodynia). Nature of the assay: Spared nerve injury (SNI) model, von Frey assay. In kind it is in vivo, mice (strain C3HeB/FeJ). Particulars: 30 mg/kg i.p., day 21 post SNI. From the text:
The spared nerve injury model (SNI model, as developed by Decosterd and Woolf (2000), see FIG. 1) is characterized by the induction of clinically relevant nerve lesions and after surgical intervention, subsequent behavioral experiments (e.g., von Frey Assay). Said model constitutes a common nerve injury model which consists of ligation and section of two branches of the sciatic nerve (namely tibial and common peroneal nerves) leaving the sural nerve intact. The SNI model results in early (less than 24 hours), prolonged and substantial changes in mechanical and cold sensitivity that closely mimic the features of clinical neuropathic pain. […] As outlined above, the spared nerve injury (SNI) model (see FIG. 1) involves a lesion of two of the three terminal branches of the sciatic nerve (tibial and common peroneal nerves) of experimental animals, leaving the sural nerve intact. SNI results in mechanical and thermal allodynia in the non-injured sural nerve skin territory (Decosterd and Woolf, Pain 2000; 87:149-158. (2) Tsujino et al., Mol. Cel. Neurosci. 2000; 15:170-182). Wildtype mice (strain […]/FeJ) (age, sex and weight matched) are anesthetized with Hypnorm (0.315 mg/ml fentanyl citrate +10 mg/ml fluanisone; Janssen)/Hypnovel (5 mg/ml midazolam; Roche Applied Sciences)/water at a ratio of 1:1:2 at 4 μl/g prior to surgical preparation. Subsequently, an incision is made under aseptic precautions in the ipsi-lateral right hind leg of all mice just above the level of the knee, exposing the three terminal branches of the sciatic nerve: the common peroneal, tibial, and sural nerves. The common peroneal and tibial nerves are ligated tightly with 7/0 silk and sectioned distal to the ligation removing 2 mm of distal nerve stump. The sural branch remains untouched during the procedure (denoted herein “SNI ipsi”). […] Reflex nociceptive responses to mechanical stimulation were measured in a von Frey assay 30 min after each injection. […] Mechanical thresholds of SNI mice are quantified using the up-down method based on Chaplan et al. (1994) and Malmberg and Basbaum (1998). […]

For assay [3], the system named is carrageenan-treated mice (paw edema). Nature of the assay: Carrageenan assay in mice, paw edema. To be noted: within the observation period, all treated animals. In kind it is in vivo. Here is the method: For the carrageenan assay a subcutaneous injection of 25 μl of 1% carrageenan (in saline) into a single hind paw (ipsi-lateral paw) of mice is applied. Subsequent inflammation results in long lasting swelling and hypersensitivity (against mechanical and thermal stimuli) of the paw. The carrageenan assay is a standard laboratory assay used to predict anti-inflammatory activity of test compounds. Paw edema measurements and Hargreaves Assay (withdrawal of paws due to thermal stimulation via a light source) are used for read out. The model of carrageenan induced paw edema is a standard laboratory assay used to predict anti-inflammatory activity and reduction of inflammation-induced pain perception of respective compounds. The following protocol describes one possible way to conduct the experiment. The basic measurement constitutes in the measurement of edema and mechanical as well as thermal hypersensitivity in response to irritants, such as carrageenan. […] Paw edema induced by carrageenan injection are detected by increased paw size measured from dorsal to plantar at the metatarsus region of the injected (ipsi-lateral) paws. Sizes of ipsi- and contra-lateral paws serve as surrogate markers for inflammation and are measured at several time points after carrageenan injection: before injection (-1), 2 […] […]

The test system of assay [4] is TNFα and IL6 expression in LPS induced THP-1 macrophages. In words: In vitro THP-1 assay, LPS-induced cytokine expression (ELISA). The class given is cell-based, human. As for the experimental part:
The human THP-1 cell line can be utilized as an in vitro model of cytokine expression as mediated by Lipopolysaccharide (LPS) or Tumor Necrosis Factors [TNFα]. Monocytic THP-1 cells (ATCC; TIB-202) can be differentiated into macrophage-like cells expressing pro-inflammatory cytokines like TNFα, IL6 and IL1β upon induction with LPS or by TNFα (autocrine induction) itself. THP-1 cells are grown in modified RPMI-1640medium (ATCC, Cat. No. 30-2001) supplemented with 10% FCS and 1% Pen/Strep. For cytokine inhibition assays, cells are seeded at a density of 5×10^5 cells/ml into 6-well plates in standard growth medium supplemented with 100 ng/ml PMA (Sigma, P1585) to induce differentiation into macrophage-like cells. After 24 hours, the medium is replaced with standard growth medium (without PMA) and the cells are incubated for another 48 hours to complete differentiation. […] Cells are incubated for 60 min with compounds prior to stimulation with 100 ng/ml LPS (Sigma, L2630) for another 4-48 hours. Supernatants are collected and assayed immediately for cytokine expression, e.g. for TNFα, IL-6 and IL-1b using commercially available sandwich ELISA assays (eBioscience, Cat. No 88-7346, 88-7066, 88-7010) or kept frozen at […] until evaluation. Concentrations of TNFα, IL6 and IL1β within the cell culture supernatants are measured by using commercial ELISA Kits (eBioscience) according to the manufacturer's instructions. CDK-inhibitory compounds according to any one of general Formula I, II or III are administered to differentiated THP-1 cells in triplicates as described above (see section 2.). After 60 min of pre-incubation with test or reference compound (SB203580, a p38 inhibitor and BMS345541, an IKK-inhibitor) alone, cells are stimulated with LPS. After incubation for 4-48 h, supernatants are collected and ELISA based determinations of cytokine supernatant concentrations are performed as described in section 3, supra. […] After 60 min of pre-incubation with test or reference compound (a p38 inhibitor and an IKK-inhibitor, respectively) alone, cells were stimulated with LPS. […]

Setting [5] is: LPS-stimulated differentiated THP-1 cells, ELISA.

Consider `CC(C)(C)c1cnc(CSc2cnc(NC(=O)C3CCNCC3)s2)o1` [compound #16 of Table 1, N-[5-[[[5-(1,1-dimethylethyl)-2-oxazolyl]-methyl]thio]-2-thiazolyl]-4-piperidinecarboxamide], for which the “reduction of TNF α levels” value in assay [1] is 89% and 85% and 78%. Further, the IC50 in assay [1] (Homo sapiens, read-out: IC50 (TNF α reduction), deduced from the data) is less than 500 nM. In addition, the “effect on mechanical allodynia of SNI mice (von Frey)” value in assay [2] (30 min prior to von Frey measurement, ipsi-lateral paw) is reported as “hypoalgesic effect; also recorded: significant amelioration of allodynia”. Besides, the “contra-lateral paws, effect of pharmacological treatment (von Frey)” value in assay [2] (contra-lateral paw) is recorded as “unaffected”. For the same compound, the “von Frey threshold values” in assay [2] (ipsi-lateral paw, all treated animals) is recorded as “significant increase of threshold values”. For the same compound, the “ipsi-lateral paw edema compared to vehicle control group” value in assay [3] was “reduced paw edema”. Besides, in assay [4] (3 μM, LPS-induced THP-1 cells), the “TNFα signal compared to DMSO (vehicle control)” value is recorded as 50%. In assay [4] (setting [5]), the “effect on IL6 protein concentration in the cell supernatant versus vehicle (DMSO)” value was “significant inhibitory effect” and the “effect on TNFα protein concentration in the cell supernatant versus vehicle (DMSO)” value is “significant inhibitory effect”.
